# Patent publication US20240390360A1, “Therapeutic Combinations Of Orally Administered Paclitaxel, A P-gp Inhibitor, And A Checkpoint Inhibitor For The Treatment Of Solid Tumors” (Athenex, Inc., priority 2021, published 2024)
# What was measured:
# [1] = test system: subjects with advanced solid tumours; type: in vivo
# [2] = test system: non-small cell lung cancer; assay: Best responses of the NSCLC subjects to prior anti-PD-1/anti-PD-L1 therapy; type: in vivo, human; details: prior therapy before this study (five pembrolizumab, three nivolumab, two atezolizumab), all discontinued due to progressive disease
compound,measurement,setting,value
COc1cc2c(cc1OC)CN(CCc1ccc(-n3nnc(-c4cc(OC)c(OC)cc4NC(=O)c4cc(=O)c5ccccc5o4)n3)cc1)CC2 [Compound A],recommended Phase 2 dose (RP2D),"[1]; QD Days 1-3 (Days 1-3, 8-10) for 2 weeks of a 3-week cycle, in combination with pembrolizumab",15 mg
atezolizumab: prior immunotherapy (anti-PD-L1) of NSCLC subjects,"best response to the prior immunotherapy: SD, number of subjects",[2],1
same,"best response to the prior immunotherapy: response (non-RECIST), number of subjects",[2],1
"pembrolizumab: checkpoint inhibitor, administered intravenously","fatal pneumonitis, number","[1]; cohort six during cycle 8, attributed to pembrolizumab",One
